Results on 5 molecules are retold here after US5972636A (priority 1997, dated 1999).

One may read the Km as the concentration of substrate that gives half-maximal velocity. What is called Ki is the equilibrium dissociation constant of an inhibitor or competing ligand from its target.

“Also recorded” adds a separate entry of the source. Read-outs that look alike come from different tables or passages of the source.

Data set [1] relates to proteasome-multipain complex formation. Format: biochemical, rabbit.
The test system of data set [2] is fraction II (ATP-dependent degradative system). Description: Hydrolysis of Ub-125I-lysozyme by muscle fraction II. Format: biochemical, rabbit. The protocol:
All enzymatic assays were linear, except where noted (see below). When present, ATP was 2 mM in assays. Unless otherwise stated, in all assays, 50 μl aliquots of the fraction from the column or of the purified protease (10 μg)were incubated in 200 μl containing 50 mM TRIS-HCl (pH 7.8), 10 mM MgCl2, 1 mM DTT, and 5 μg of the radioactive proteins, 0.5 μg of Ub-conjugates, or 0.5 mM of the fluorogenic peptide. For assays of proteolysis, the reaction mixtures contained approximately 15,000 cpm of Ub-lysozyme or labeled proteins. Degradation of ^125 I-lysozyme, Ub-^125 I-lysozyme, ^14 C-casein, ^14 C-hemoglobin and OH/O2^- treated ^14 C-hemoglobin were assayed by measuring the production of acid-soluble radioactivity after 60 min of incubation at 37° C. Ub-^125 I-lysozyme was prepared using liver fraction II, according to the method of Hough and Rechsteiner. Hough et al., J. Biol. Chem. 261:2400-2408 (1986), Hough, R. and Rechsteiner, M. J. Biol. Chem. 261:2391-2399 (1986). ^125 I-lysozyme and Ub were prepared as described previously. Waxman et al., J. Biol. Chem. 262:2451-2457 (1987), Fagan et al., BioChem. J. 243:335-343 (1987). The concentration of conjugates was calculated based on the specific radioactivity of the ^125 I-lysxozyme used for conjugate synthesis. One unit of sLLVT-MCA represents 10 nmol of MCA produced in 30 min. […]

The subject of data set [3] is 1500 kDa complex (proteasome-multipain). Particulars: for Realtive Activity (%) Complex, Ub-lysozyme degradation: None = 100, 2 mM of the nucleotide or 10 mM PPi.
Data set [4] has as its system new protease (multipain) from skeletal muscle. The following applies: for Relative activity (%), degradation of Ub-125I-lysozyme by the new activity: None = 100, 2 mM of the nucleotides or 10 mM PPi, 37° C. 1 hour.
The subject of data set [5] is ATP-ubiquitin-dependent proteolytic system. Put plainly: ATP-ubiquitin-activated proteolysis in extracts (Fraction II) of psoas muscle. Format: biochemical, rabbit. The text has this: Psoas muscles from fed and fasted rabbits were used to obtain sufficient material for assay of the ATP-dependent system in cell-free extracts. Fasted rabbits were deprived of food for sufficient time to cause a weight loss of about 20% (similar to that seen in rats deprived of food for 1 day). The animals were anesthesized, and their psoas muscles dissected and homogenized as described previously. Fagan, J. M., et al., J. Biol. Chem., 261: 5705-5713 (1986).
After centrifugation at 10,000×g and then at 100,000×g, the muscle extracts were fractionated on DE52 cellulose to remove ubiquitin and most cell proteins, as described previously. Han, H. Q. et al., Federation Proc, 2:A564 (1988) and Waxman, L., et al., J. Biol. Chem., 262:2451-2457 (1987). The fraction containing the ATP-ubiquitin-dependent proteolytic system (Herskho, A., J. Biol. Chem., 263:15237-15240 (1988); Rechsteiner, M., Ann. Rev. Cell Biol., 3:1-30 (1987) and Fagan, J. M., et al. Biochem J., 243:335-343 (1987)) was eluted with 0.5M NaCl ("Fraction II"), dialyzed against a buffer containing Tris (50 mM, pH7.8), dithiothreitol (1 mM), and 20% glycerol, and concentrated before assay of activity. Degradation of endogenous muscle proteins was assayed by measuring the production of free tyrosine, which was determined fluorometrically after precipitation of proteins with trichloroacetic acid. Tischler, M. et al., J. Biol, Chem., 257:1613-1621 (1982) and Fulks, R., et al., J. Biol. Chem., 250:290-298 (1975). In addition, the degradation of ^14 C-casein was assayed by measuring the production of acid-soluble radioactivity. Waxman, L., et al., J. Biol. Chem., 262:2451-2457 (1987) and Fagan, J. M., Biochem J., 243:335-343 (1987).

The subject of the next data set is denervated soleus. Format: cell-based, rat.
The target of data set [6] is T1, proteasome from skeletal muscle (Oryctolagus cuniculus, UniProt G1T4Q9).
T1 construct: from tissue; host or cells: rabbit skeletal (psoas) muscle, proteasome fraction after Mono Q and Superose 6
The format is biochemical, rabbit.

In another data set the test system is Ub-lysozyme conjugates. Description: Degradation of Ub-lysozyme conjugates in 1st and 2nd hour with additions at 60 min. The following applies: substance added at 60 min, cystatin 4 μM. The format is biochemical, rabbit.

`Nc1ncnc2c1ncn2[C@@H]1O[C@H](COP(=O)(O)OP(=O)(O)NP(=O)(O)O)[C@@H](O)[C@H]1O` [AMP-PNP, adenyl 5'-oyl-imidodiphosphate]: the “effect on formation of the proteasome-multipain complex, in words” value (“effect on formation” for short) in data set [1] was “completely prevented complex formation”. In data set [2], the “effect on degradation of Ub-conjugated proteins by fraction II, in words” value is recorded as “did not stimulate the degradation of Ub-conjugated proteins”. For the same molecule, in data set [3] (Table VIII), the “effect of nucleotides on Ub-125I-lysozyme hydrolysis by the complex, in words” value was “No stimulation” and the “Realtive Activity (%) Complex, Ub-lysozyme degradation” value was 109%. Moreover, in data set [4] (Table III), the “effect of nucleotides on Ub-125I-lysozyme hydrolysis by the purified enzyme, in words” value is “No stimulation” and the “Relative activity (%), degradation of Ub-125I-lysozyme by the new activity” value stood at 90%.
Regarding `Nc1ncnc2c1ncn2[C@@H]1O[C@H](COP(=O)(O)OP(=O)(O)OP(=O)(O)O)[C@@H](O)[C@H]1O` [ATP], the “effect on formation” value in data set [1] (DFP 1 mM or cystatin 4 μM preincubated 10 min, AMP-PNP in place of ATP) is given as “allowed formation of a 1300 kDa complex”. Moreover, the “14C-Casein Hydrolysis” value was 2.3 ± 0.2 ug casein hydrolyzed/1 hr in data set [5] and 1.5 ± 0.2 ug casein hydrolyzed/1 hr in data set [5] (Fed rabbits, No addition 1.1 ± 0.2, ATP 5 mM, ubiquitin 15 μM). Also, the “Hydrolysis of Endogenous Proteins” value in data set [5] (Fasted rabbits, No addition 2.0 ± 0.1, ATP 5 mM, ubiquitin 15 μM) was found to be 10.8 ± 2.1 nmol try released/2 hr; in data set [5] (Fed rabbits, No addition 0.6 ± 0.1, ATP 5 mM, ubiquitin 15 μM) it was 5.7 ± 0.9 nmol try released/2 hr. Moreover, in data set [3], the “ATP concentration of maximal stimulation of conjugate degradation, 1500 kDa complex” value is “about 0.7 mM”. For the same molecule, the “stimulation of degradation of Ub-125I-lysozyme, 125I-lysozyme, sLLVT-MCA or casein by the complex” value in data set [3] (1500 kda proteasome-multipain complex) is 3-5 fold. Besides, in data set [3] (Table VIII), the “Realtive Activity (%) Complex, Ub-lysozyme degradation” value stood at 458%. Further, the Km in data set [3] (read-out: Km for ATP, 1500 kDa complex, Ub-conjugate degradation) was at most 300 µM; in data set [4] (read-out: Km for ATP, multipain, Ub-conjugate degradation), at most 300 µM. Further, in data set [4] (ATP 2 mM where stated, 60 min), the “stimulation of Ub-lysozyme hydrolysis by the new protease” value is 5 fold. For the same molecule, the “stimulation of lysozyme degradation by the new protease” value in data set [4] (ATP 2 mM where stated, 60 min) amounted to 3 fold. Moreover, the “Relative activity (%), degradation of Ub-125I-lysozyme by the new activity” value in data set [4] (Table III) was 743%.
Turning to `Nc1ncnc2c1ncn2[C@@H]1O[C@H](COP(=O)(O)CP(=O)(O)OP(=O)(O)O)[C@@H](O)[C@H]1O` [AMP-CPP], in data set [2], the “effect on degradation of Ub-conjugated proteins by fraction II, in words” value is given as “did not stimulate the degradation of Ub-conjugated proteins”.
Consider `CN` [Methylamine], for which the “Myofibrillar Proteins 3-Methylhistidine Release” value with denervated soleus (None = 5.11 ± 0.21, as E65) is on record as 5.05 ± 0.19 pmol/mg/2h. Also, the “Total Proteins Tyrosine Release” value in the data set on denervated soleus (soleus three days after section of the sciatic nerve, None = 328 ± 10, methylamine 10 μM, E64c 50 μM, dinitrophenol 0.1 mM, 2-deoxyglucose 5 mM) is 330 ± 11 pmol/mg/2h.

B1: Cystatin A: egg-white cystatin, a potent inhibitor of many papain-like thiol proteinases (protein, UniProt P01040 1-98, looked up)
Cystatin-A: MIPGGLSEAKPATPEIQEIVDKVKPQLEEKTNETYGKLEAVQYKTQVVAGTNYYIKVRAGDNKYMHLKVFKSLPGQNEDLVLTGYQVDKNKDDELTGF
Regarding B1, the “effect on formation” value in data set [1] is reported as “did not occur; also recorded: blocked”. In data set [6], the “Realtive Activity (%) Proteasome (sLLVT-MCA)” value is 93% and the “Relative activity (%) […]-MCA” value is on record as 93%. Further, in the data set on Ub-lysozyme conjugates (Complex added initially, None = 65), the “Degradation in 2nd hour” value was determined as 18 ng. The “Degradation in 2nd hour” value in the data set on Ub-lysozyme conjugates (Multipain added initially, None = 74) came out at 4 ng. Besides, in data set [3], the “Realtive Activity (%) Complex (Ub-125I-Lysozyme)” value is given as 35% and the “inhibition of conjugate breakdown by the complex” value came out at 65%. In addition, in data set [4], the “Realtive Activity (%) Multipain” value is reported as 30%, the “Relative activity (%) NEW PROTEASE OH/O2 - treated hemoglobin” value came to 27%, the “Relative activity (%) NEW PROTEASE Ub-lysozyme” value is listed as 30% and the “Relative activity (%) NEW PROTEASE lysozyme” value amounted to 24%. Further, the Ki in data set [4] (read-out: Ki, inhibition of proteolysis by multipain) is below 1000 nM.
